In ChEMBL document CHEMBL1240511, “Design, synthesis, and in vitro pharmacology of new radiolabeled gamma-hydroxybutyric acid analogues including photolabile analogues with irreversible binding to the high-affinity gamma-hydroxybutyric acid binding sites” (J Med Chem, 2010):
Calls of active or inactive are those of the source. The calls are words filed in the database; no cut-off is given here.

What was measured:
[1] = Displacement of [3H]NCS-382 from GABAB receptor gamma-hydroxybutyric acid binding site in rat cerebral cortex synaptic membranes after 1 hr by liquid scintillation counting; assay type: cell membranes, Membrane
[2] = organism: Rattus norvegicus; test: Binding affinity to GABAB receptor gamma-hydroxybutyric acid binding site in UV irradiated rat cerebral cortex synaptic membranes assessed as covalent binding at 100 nM after 1 hr by gamma-hydroxybutyric acid displacement assay; assay type: tissue-based; settings: tested as the 125I-labelled form

| Ki [1] | Activity [2] | Compound |
| --- | --- | --- |
| 0.12 µM | Active | [N-]=[N+]=Nc1ccc(I)cc1COc1ccc(C(O)CCC(=O)O)cc1 (centres undefined) |
| 0.186 µM |  | [N-]=[N+]=Nc1ccc(COc2ccc(C(O)CCC(=O)O)cc2)cc1I (centres undefined) |
| 0.075 µM |  | O=C(O)CCC(O)c1ccc(OCc2cccc(I)c2)cc1 (centres undefined) |
